Measured values published in ChEMBL document CHEMBL4725449, “Brain Penetrable Inhibitors of Ceramide Galactosyltransferase for the Treatment of Lysosomal Storage Disorders” (ACS Med Chem Lett, 2020).
Values after ≈ are worked out from the molar mass of the structure shown.

How the values were obtained:
[1] = Distribution coefficient, log D of the compound; type: physicochemical; details: octanol/water
[2] = Drug uptake in C57BL/6 mouse brain at 3 mg/kg, iv measured at 1 hr; type: ADME, organism-based; details: read-out: Drug uptake
[3] = Drug uptake in C57BL/6 mouse brain at 3 mg/kg, iv measured at 5 mins; type: ADME, organism-based; details: read-out: Drug uptake
[4] = Ratio of drug concentration in brain to plasma in C57BL/6 mouse measured at 5 mins; type: ADME, organism-based; details: read-out: BPR
[5] = molecular target: T1, 2-hydroxyacylsphingosine 1-beta-galactosyltransferase (Homo sapiens, UniProt Q16880); assay: Inhibition of UGT8 in human OE19 cells assessed as redcution in SFT accumulation measured after 72 hrs by LC-MS/MS analysis; type: cell-based
T1 sequence (Q16880 whole entry): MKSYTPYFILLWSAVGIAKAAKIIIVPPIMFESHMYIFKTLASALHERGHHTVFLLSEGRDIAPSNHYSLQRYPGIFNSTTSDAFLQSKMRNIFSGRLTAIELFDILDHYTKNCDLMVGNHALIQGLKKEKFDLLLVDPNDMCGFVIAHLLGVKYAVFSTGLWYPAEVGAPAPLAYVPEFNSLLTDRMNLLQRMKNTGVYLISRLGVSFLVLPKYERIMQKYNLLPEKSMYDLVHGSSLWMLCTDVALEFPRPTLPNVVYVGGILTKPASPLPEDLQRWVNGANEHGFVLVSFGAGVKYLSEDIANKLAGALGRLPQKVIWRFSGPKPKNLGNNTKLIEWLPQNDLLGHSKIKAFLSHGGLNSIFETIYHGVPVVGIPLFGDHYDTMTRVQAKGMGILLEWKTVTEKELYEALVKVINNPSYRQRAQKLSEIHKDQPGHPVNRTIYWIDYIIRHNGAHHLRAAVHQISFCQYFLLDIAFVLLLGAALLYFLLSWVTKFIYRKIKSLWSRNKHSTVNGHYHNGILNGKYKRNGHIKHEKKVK

[6] = Apparent permeability of the compound at pH 6.5 to 7.4 by PAMPA; type: ADME
[7] = Ratio of drug concentration in brain to plasma in C57BL/6 mouse measured at 1 hr; type: ADME, organism-based; details: read-out: BPR
[8] = molecular target: T1, 2-hydroxyacylsphingosine 1-beta-galactosyltransferase; assay: Inhibition of UGT8 in human OE19 cells assessed as redcution in GalCer accumulation measured after 72 hrs by LC-MS/MS analysis; type: cell-based
[9] = Intrinsic clearance in human liver microsomes; type: ADME, Microsome; details: read-out: CLH
[10] = Thermodynamic solubility of the compound […] at pH 7.4; type: physicochemical; details: read-out: Therm_solubility

Compound | logD [1] | concentration at 1 h [2] [ng/mL] | concentration at 5 min [3] [ng/mL] | Kp at 5 min [4] | IC50 [5] [nM] | Papp [6] [×10⁻⁶ cm/s] | Kp at 1 h [7] | IC50 [8] [nM] | microsomal CLint [9] [µL/min/mg] | solubility thermodynamic [10] [µM]
CCC(=O)c1csc2c(C(F)(F)F)cc(N3CCN(CC(=O)NC(C)C)CC3)nc12 | 3.6 | 270 | 1400 | 0.83 | 97 | > 80 | 0.72 | 120 | 36 | 
CNC(=O)c1csc2c(C(F)(F)F)cc(N3CCC(OC(=O)N4CC(OC(F)(F)F)C4)CC3)nc12 | 5.13 | 316 | 3430 | 1.67 | 1.7 | > 80 | 0.59 | 2.9 | 41 | < 0.5
CNC(=O)c1csc2c(C(F)(F)F)cc(N3CCC(OC(=O)N4CC(CN(C)C)C4)CC3)nc12 |  |  |  |  | 980 |  |  |  |  | 420 (≈ 210 µg/mL)
CNC(=O)c1csc2c(C(F)(F)F)cc(N3CCC(OC(=O)NCCN4CCCC4)CC3)nc12 |  |  |  |  | 510 |  |  |  |  | 430 (≈ 215 µg/mL)
CNC(=O)c1csc2c(C(F)(F)F)cc(N3CCC(NC(=O)OCC4CC4)CC3)nc12 |  |  |  |  | 18 |  |  | 37 |  | 
CNC(=O)c1csc2c(C(F)(F)F)cc(N3CCN(CC(O)COC(C)(C)C)CC3)nc12 (stereo not drawn) | 3.7 | 210 | 1700 | 0.93 | 190 | 78 | 0.35 | 350 | 51 | 
CNC(=O)c1csc2c(C(F)(F)F)cc(N3CCC(OC(=O)NCC4CC4)C3)nc12 (stereo not drawn) |  |  |  |  | 610 |  |  |  |  | 
CNC(=O)c1csc2c(C(F)(F)F)cc(N3CCC(OC(=O)NC(C)C)CC3)nc12 | 4.35 | 302 | 2700 | 1.88 | 2 | > 80 | 1.03 | 2 | 46 | 
CC(C)NC(=O)CN1CCN(c2cc(C(F)(F)F)c3scc(C(=O)N4CCC4)c3n2)CC1 | 2.7 |  |  |  | 640 | 66 |  | 320 | 27 | 
CNC(=O)c1csc2c(C(F)(F)F)cc(N3CCN(C(C)C(=O)NC4CC4)CC3)nc12 (stereo not drawn) | 3.3 |  | 43 | 0.01 | 170 | 75 |  | 360 | 34 | 
CNC(=O)c1csc2c(C(F)(F)F)cc(N3CCC(OC(=O)NCC4CC4)CC3)nc12 | 4.2 | 132 | 2140 | 0.91 | 1 | > 80 | 0.31 | 3 | 59 | 
CNC(=O)c1csc2c(C(F)(F)F)cc(N3CC(OC(=O)NCC4CC4)C3)nc12 |  |  |  |  | 200 |  |  |  |  | 
CC[C@H](C)NC(=O)OC1CCN(c2cc(C(F)(F)F)c3scc(C(=O)NC)c3n2)CC1 | 4.56 | 192 | 2370 | 1.45 | 0.9 |  | 0.76 | 0.4 |  | < 0.5
CNC(=O)c1csc2c(C(F)(F)F)cc(N3CCC(OC(=O)N[C@@H](C)C4CC4)CC3)nc12 | 4.29 | 143 | 1480 | 0.76 | 0.9 | > 80 | 0.42 | 1.1 | 70 | < 0.5
CNC(=O)c1csc2c(C(F)(F)F)cc(N3CCN(CCOC(C)C)CC3)nc12 | 3.6 | 1700 | 3000 | 1.8 | 330 | > 80 | 1 | 200 | 96 | 
CNC(=O)c1csc2c(C(F)(F)F)cc(N3CCN(CC(=O)C(C)(C)C)CC3)nc12 | 3.3 | 170 | 1100 | 0.81 | 610 | > 80 | 0.54 | 1400 | 5 | 
CNC(=O)c1csc2c(C(F)(F)F)cc(N3CCN(C(=O)COC(C)C)CC3)nc12 | 3.1 | 8 | 228 | 0.07 | 660 | 69 | 0.06 | 450 | 42 | 
CNC(=O)c1csc2c(C(F)(F)F)cc(N3CCC(OC(=O)NCCOC(F)(F)F)CC3)nc12 | 4.7 | 128 | 1640 | 0.59 | 0.4 |  | 0.24 | 0.6 |  | < 0.5
CNC(=O)c1csc2c(C(F)(F)F)cc(N3CCN(CC(=O)NC(C)C)CC3)nc12 |  |  |  |  | 67 |  |  | 90 |  | 
CNC(=O)c1csc2c(C(F)(F)F)cc(N3CC(NC(=O)OCC4CC4)C3)nc12 |  |  |  |  | 48 |  |  | 43 |  | 
